Experimental data as given in patent US4871758A, “Pharmacologically active cholinergic compositions, and methods for making same and use thereof in treating disease” (priority 1987, dated 1989).
Structures can show the parent of a compound that is named as a salt.

Tests used:
[1] = test system: M1 receptors on the intramural inhibitory neurons; assay: lower esophageal sphincter pressure assay in anaesthetized opossum; type: in vivo
Procedure: The compound (I) obtained according to Example 2 was tested by assay on the lower esophageal sphincter of an opossum anaesthetized with sodium phenobarbitol. In carrying out the assay, the lower esophageal sphincter located between the esophagus and the stomach remains in a state of tonic contraction; therefore, a pressure sensing (manometric) catheter introduced from the animal's mouth into the lumen monitors lower esophageal sphincter pressures by registering a sustained high pressure zone, due to the lumen's myogenic contraction which is independent of neural or hormonal influences. Neural activity and hormones can increase or decrease the sphincter pressure and both excitatory and inhibitory influences can be readily detected.
The intraluminal pressures from the lower esophageal sphincter, esophageal body and the stomach are continuously monitored using a low compliance, waterfilled and continuously perfused catheter anchored in the lower esophageal sphincter so that artifacts due to axial motion can be minimized. See Goyal et al., Gastroenterology, 71, 62-7 (1976). All animals receive bilateral cervical vagotomy to eliminate vagally mediated changes in the sphincter pressure. Nerves to the sphincter are stimulated electrically by electrodes which are either applied to the distal end of the cut vagus nerve or applied intramurally in the sphincter. See Goyal et al., supra, and Rattan et al., Am. J. Physiol., 234, E272-E276 (1978). Reflex relaxation of the sphincter is produced by distension of the esophagus with an intraluminal balloon. Drugs are administered in the arterial supply of the lower esophageal sphincter. This is done by opening the abdominal cavity and cannulating the artery that leads to the lower esophageal sphincter. The compound is injected into the blood supply of the lower esophageal sphincter and its effect therein is determined. The animal's vital signs are monitored and blood pressure is maintained with intravenous infusion of saline. Some drugs are administered intravenously.
In summary, the above-described model permits identification of muscarinic agonists and antagonists in a physiological system.

[2] = test system: guinea-pig trachea muscle; assay: guinea-pig trachea contraction; details: muscles have essentially M2 receptors
[3] = lower esophageal sphincter, anaesthetized opossum

With Cc1ccc(-c2cncn2C)o1 [Compound I, 1-(N-methyl)-5-(5'-methyl-2'-furyl)imidazole, Hydrochloride] the M1 receptor selectivity ([1]; M1 versus M2, from sphincter and trachea results) was “highly selective for M1 receptors”, the “blockade of activity by antagonist” value ([1]; atropine) was “blocked by atropine” and the agonist type ([1]; inferred from 80% of full agonist activity) was “partial agonist”. The “dosage giving peak effect” value [1, 3] was 10^-6 mole/kg, the threshold dosage [1, 3] was 10^-8 mole/kg and the “muscarinic receptor subtype effects” value ([1]; lower esophageal sphincter, anaesthetized opossum, injected into arterial supply of the sphincter) was “only M1 effects”. The “potency in contracting the trachea muscle” value [2] was “virtually no potency”.
